Patent publication US20090275557A1, “Novel Composition for Treatment of Diseases Related to Activated Lymphocytes” (Immune Control, Inc., priority 2008, published 2009)
Several values for one entry are separate records, joined by “and”; a condition that tells them apart may be missing. Equal entries are not always repeated. Where two headings read alike, the source gives them in different places.

Tests used:
[1] = test system: bovine type 2 collagen immunized rats; assay: Collagen-induced arthritis assay, IP injection protocol, ankle diameter; format: in vivo, rat
Experimental: Female Lewis rats (CR) weighing between 125-200 g were immunized with bovine type 2 collagen, 2 mg/ml in a 1:1 solution of 0.01 N acetic acid and Freund's incomplete adjuvant (“FIA”). A 0.1 ml portion of the collagen solution was injected id (intradermally) at three sites on the rat. Rats were immunized with the collagen solution on days 1 and 6 of the study. […] On day 9 (study day “0”), baseline ankle diameters were measured. On days 10-15 (study days 1-6), the rats were then treated, via oral gavage, with either 1, 5, or 25 mg/kg of one of ICI-1259 or ICI-1260, prepared as described below. Ankle diameter measurements were measured on each of days 10-16.
Compounds ICI-1259, ICI-1260, ICI-1505, and ICI-1506 were administered via IP injection to treat collagent-induced arthritis in a variation of the experiments described above. Under the protocol of the IP injection experiments, animal were immunized with Bovine Type 2 collagen as previously described. […] On day 9 (study day “0”), baseline ankle diameters were measured. On days 10-12 (study days 1-3), the rats were then treated once per day, via IP injection, with one of ICI-1259, ICI-1260, ICI-1505, or ICI-1506 at 10 mg/kg. Ankle diameter in the immunized rodents was measured on each of days 10-13 as well as on day 14. […] See FIG. 18 (ICI-1259, ICI-1260, and ICI-1505) and FIG. 19 (ICI-1506).
In a separate study, using the IP injection protocol described above, ICI-1259 and 1260 were each dosed at 2 mg/kg and 0.4 mg/kg.

[2] = Pharmacokinetic study, oral gavage in fasted male Sprague-Dawley rats; format: in vivo, rat; settings: for Tmax: read-out: tmax
Experimental: ICI-1259 and ICI-1260 were supplied as powders and stored frozen until used. Dosing solutions in phosphate buffered saline were prepared at 1 mg/ml. These solutions were then evaluated in fasted male Sprague-Dawley rats. The rats were fitted with a jugular vein cannula for blood sampling. Rats were also fitted with an additional jugular vein cannula, or intradudodenal cannula as needed. Rats were given a commercial rodent diet ad libitum prior to study initiation. Food was then withheld from the animals for a minimum of twelve hours prior to dosing, until four hours postdose when food was returned. Water was supplied ad libitum. Three rats were used in each study, unless otherwise indicated.
For both ICI-1259 and ICI-1260, rats were given a 10 mg/kg dose from a 1 mg/ml solution. The appropriate volume of solution was given as a single bolus dose at time zero on the day of dosing. Blood samples were taken at predose, 5 minutes after dosing, 10 minutes after dosing, 15 minutes after dosing, 30 minutes after dosing, 1 hour after dosing, 2 hours after dosing, 4 hours after dosing, 6 hours after dosing, and 8 hours after dosing.

5-HT2A = assay: 5-HT receptor binding, displacement of tritiated ligands; settings: at 10 μM
Experimental: (§1) 5-HT receptor binding was measured using membrane preparations of brain regions known to be enriched with given 5-HT receptor subtype(s). The assay subsequently measured the displacement of tritiated ligands known to bind to a given 5-HT subtype.
(§2) A receptor binding assay was performed for ICI-1259 and ICI-1260 showing that at 10 μM, these compounds bind receptors 5-HT1A(h), 5-HT1B, 5-HT1D(h), 5-HT2A, 5-HT2A(h), 5-HT2B, 5-HT2C, 5-HT3,5-HT3(h), 5-HT4, 5-HT5A(h), 5-HT6, and 5-HT7.

5-HT3 = assay: as above; settings: at 10 μM
Experimental: as §1, §2

5-HT1D(h) = molecular target: T1, 5-HT1D(h) (Homo sapiens, UniProt P28221); assay: as above; settings: at 10 μM
T1 construct: from tissue
T1 sequence (P28221 whole entry): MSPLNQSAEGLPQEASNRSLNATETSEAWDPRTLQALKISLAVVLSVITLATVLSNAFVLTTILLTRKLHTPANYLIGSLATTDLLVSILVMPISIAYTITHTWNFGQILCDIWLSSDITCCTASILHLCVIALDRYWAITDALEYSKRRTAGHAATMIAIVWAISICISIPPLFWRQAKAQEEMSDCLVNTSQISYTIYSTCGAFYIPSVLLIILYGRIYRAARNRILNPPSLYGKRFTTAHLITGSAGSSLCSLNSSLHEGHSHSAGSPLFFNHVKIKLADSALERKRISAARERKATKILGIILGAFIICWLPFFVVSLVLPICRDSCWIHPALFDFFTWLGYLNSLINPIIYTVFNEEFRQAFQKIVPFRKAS
Experimental: as §1, §2

5-HT1B = assay: as above; settings: at 10 μM
Experimental: as §1, §2

5-HT1A(h) = molecular target: T2, 5-HT1A(h) (Homo sapiens, UniProt P08908); assay: as above; settings: at 10 μM
T2 construct: from tissue
T2 sequence (P08908 1-422): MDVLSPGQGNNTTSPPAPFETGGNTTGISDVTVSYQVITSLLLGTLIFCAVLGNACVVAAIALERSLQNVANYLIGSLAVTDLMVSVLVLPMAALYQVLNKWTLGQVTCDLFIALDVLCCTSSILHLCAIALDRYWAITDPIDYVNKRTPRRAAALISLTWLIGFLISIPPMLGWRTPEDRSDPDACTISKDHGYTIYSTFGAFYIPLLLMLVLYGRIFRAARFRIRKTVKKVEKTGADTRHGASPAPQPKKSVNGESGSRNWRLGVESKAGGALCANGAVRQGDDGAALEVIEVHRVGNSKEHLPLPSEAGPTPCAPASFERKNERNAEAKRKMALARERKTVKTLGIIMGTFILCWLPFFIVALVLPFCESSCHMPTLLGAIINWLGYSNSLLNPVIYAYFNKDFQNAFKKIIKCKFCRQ
Experimental: as §1, §2

5-HT4 = assay: as above; settings: at 10 μM
Experimental: as §1, §2

5-HT2A(h) = molecular target: T3, 5-HT2A(h) (Homo sapiens, UniProt P28223); assay: as above; settings: at 10 μM
T3 construct: from tissue
T3 sequence (P28223 whole entry): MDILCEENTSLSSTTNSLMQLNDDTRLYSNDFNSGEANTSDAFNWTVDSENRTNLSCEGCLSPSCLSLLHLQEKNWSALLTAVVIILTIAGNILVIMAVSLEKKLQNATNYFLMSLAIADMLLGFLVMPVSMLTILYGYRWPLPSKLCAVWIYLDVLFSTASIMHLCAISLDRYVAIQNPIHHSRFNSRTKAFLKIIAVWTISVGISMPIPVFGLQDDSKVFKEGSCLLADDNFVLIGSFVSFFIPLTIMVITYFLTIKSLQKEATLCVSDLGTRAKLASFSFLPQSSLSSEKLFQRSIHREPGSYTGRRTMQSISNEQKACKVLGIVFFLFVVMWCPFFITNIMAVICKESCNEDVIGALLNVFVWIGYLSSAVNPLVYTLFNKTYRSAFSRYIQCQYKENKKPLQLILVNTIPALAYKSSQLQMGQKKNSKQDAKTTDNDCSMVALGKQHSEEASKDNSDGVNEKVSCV
Experimental: as §1, §2

5-HT6 = assay: as above; settings: at 10 μM
Experimental: as §1, §2

5-HT7 = assay: as above; settings: at 10 μM
Experimental: as §1, §2

[3] = individual rats, oral gavage 10 mg/kg, 10 mg/kg
[4] = male, Sprague-Dawley, rat, plasma, po, 10 mg/kg, individual rats, oral gavage 10 mg/kg
[5] = male, Sprague-Dawley, rat, plasma, po, 10 mg/kg, mean, oral gavage 10 mg/kg

Q: For `CNCC(=O)NCCCN1CCC(CCCN2c3ccccc3Sc3ccc(C(F)(F)F)cc32)CC1` [ICI-1259, 2-(methylamino)-N-(3-(4-(3-(2-(trifluoromethyl)-10H-phenothiazin-10-yl)propyl)piperidin-1-yl)propyl)acetamide], which “reduction in ankle swelling (ankle diameter)” value (shortened to “reduction in ankle swelling”) ([1]; IP injection 0.4 mg/kg) is on record?
A: Statistically significant results were only observed for ICI-1260 at 2 mg/kg

Q: What about the “reduction in ankle swelling” value ([1]; IP injection 2 mg/kg, study days 3 and 4) of the same compound?
A: Statistically significant results were only observed for ICI-1260 at 2 mg/kg

Q: And the “reduction in ankle swelling” value ([1]; IP injection 10 mg/kg once per day, study days 1-3, observed on study days 2-4)?
A: statistically significant results were observed

Q: What about the “dose absorbed after oral dosing” value ([2]; indirectly indicated by the average bioavailability, oral 10 mg/kg) of the same compound?
A: approximately 38%

Q: And the AUClast [2, 3]?
A: 98.7 ng·h/mL and 74.2 ng·h/mL

Q: What about the Cmax [2, 3] of the same compound?
A: 28.4 ng/mL and 24.3 ng/mL

Q: And the “Dose Normalized AUClast” value [2, 3]?
A: 6.52 kg·ng·h/mL/mg and 9.87 kg·ng·h/mL/mg and 7.42 kg·ng·h/mL/mg

Q: And the Plasma concentration ([2]; individual rats, oral gavage 10 mg/kg, 0.083 hr, BLOQ = below limit of quantitation (1 ng/mL))?
A: BLOQ

Q: What about the Plasma concentration ([2]; individual rats, oral gavage 10 mg/kg, 0.25 hr, 10 mg/kg) of the same compound?
A: 1.10 ng/mL and 3.38 ng/mL and 4.62 ng/mL

Q: What about the Plasma concentration ([2]; individual rats, oral gavage 10 mg/kg, 0.50 hr, 10 mg/kg) of the same compound?
A: 1.56 ng/mL and 3.45 ng/mL and 5.39 ng/mL

Q: What about the Plasma concentration ([2]; individual rats, oral gavage 10 mg/kg, 1.0 hr, 10 mg/kg) of the same compound?
A: 5.21 ng/mL and 17.6 ng/mL and 4.81 ng/mL

Q: What about the Plasma concentration ([2]; individual rats, oral gavage 10 mg/kg, 2.0 hr, 10 mg/kg) of the same compound?
A: 28.4 ng/mL and 24.3 ng/mL

Q: What about the Plasma concentration ([2]; individual rats, oral gavage 10 mg/kg, 4.0 hr, 10 mg/kg) of the same compound?
A: 7.49 ng/mL and 7.34 ng/mL

Q: And the Plasma concentration ([2]; individual rats, oral gavage 10 mg/kg, 6.0 hr, 10 mg/kg)?
A: 10.8 ng/mL and 6.73 ng/mL

Q: And the Plasma concentration ([2]; individual rats, oral gavage 10 mg/kg, 8.0 hr, 10 mg/kg)?
A: 4.35 ng/mL and 3.04 ng/mL

Q: And the bioavailability ([2]; individual rats, oral gavage 10 mg/kg, dose normalized AUC divided by average intravenous AUC, 10 mg/kg)?
A: 17% and 13%

Q: And the AUC(0-t) [2, 4]?
A: 65.2 ng·h/mL

Q: What about the concentration at 2 hr ([2]; male, Sprague-Dawley, rat, plasma, po, 10 mg/kg, individual rats, oral gavage 10 mg/kg, 2.0 hr) of the same compound?
A: 16.6 ng/mL

Q: What about the concentration at 4 hr ([2]; male, Sprague-Dawley, rat, plasma, po, 10 mg/kg, individual rats, oral gavage 10 mg/kg, 4.0 hr) of the same compound?
A: 8.31 ng/mL

Q: And the concentration at 6 hr ([2]; male, Sprague-Dawley, rat, plasma, po, 10 mg/kg, individual rats, oral gavage 10 mg/kg, 6.0 hr)?
A: 7.85 ng/mL

Q: What about the concentration at 8 hr ([2]; male, Sprague-Dawley, rat, plasma, po, 10 mg/kg, individual rats, oral gavage 10 mg/kg, 8.0 hr) of the same compound?
A: 3.28 ng/mL

Q: What about the bioavailability ([2]; male, Sprague-Dawley, rat, plasma, po, 10 mg/kg, individual rats, oral gavage 10 mg/kg, dose normalized AUC divided by average intravenous AUC, read-out: Bioavailability) of the same compound?
A: 11%

Q: And the Cmax ([2]; male, Sprague-Dawley, rat, plasma, po, 10 mg/kg, individual rats, oral gavage 10 mg/kg, read-out: Cmax)?
A: 16.6 ng/mL

Q: What about the Tmax [2, 4] of the same compound?
A: 2 h

Q: And the bioavailability ([2]; male, Sprague-Dawley, rat, plasma, po, 10 mg/kg, mean (average), oral gavage 10 mg/kg, read-out: Bioavailability)?
A: 14%

Q: And the AUC(0-t) [2, 5]?
A: 79.4 ng·h/mL

Q: And the concentration at 0.25 hr ([2]; male, Sprague-Dawley, rat, plasma, po, 10 mg/kg, mean, oral gavage 10 mg/kg, 0.25 hr)?
A: 3.03 ng/mL

Q: And the concentration at 0.5 hr ([2]; male, Sprague-Dawley, rat, plasma, po, 10 mg/kg, mean, oral gavage 10 mg/kg, 0.50 hr)?
A: 3.47 ng/mL

Q: What about the concentration at 1 hr ([2]; male, Sprague-Dawley, rat, plasma, po, 10 mg/kg, mean, oral gavage 10 mg/kg, 1.0 hr) of the same compound?
A: 9.21 ng/mL

Q: What about the concentration at 2 hr ([2]; male, Sprague-Dawley, rat, plasma, po, 10 mg/kg, mean, oral gavage 10 mg/kg, 2.0 hr) of the same compound?
A: 23.1 ng/mL

Q: What about the concentration at 4 hr ([2]; male, Sprague-Dawley, rat, plasma, po, 10 mg/kg, mean, oral gavage 10 mg/kg, 4.0 hr) of the same compound?
A: 7.71 ng/mL

Q: What about the concentration at 6 hr ([2]; male, Sprague-Dawley, rat, plasma, po, 10 mg/kg, mean, oral gavage 10 mg/kg, 6.0 hr) of the same compound?
A: 8.46 ng/mL

Q: What about the concentration at 8 hr ([2]; male, Sprague-Dawley, rat, plasma, po, 10 mg/kg, mean, oral gavage 10 mg/kg, 8.0 hr) of the same compound?
A: 3.56 ng/mL

Q: And the Cmax ([2]; male, Sprague-Dawley, rat, plasma, po, 10 mg/kg, mean, oral gavage 10 mg/kg, read-out: Cmax)?
A: 23.1 ng/mL

Q: And the Tmax [2, 5]?
A: 2 h

Q: And the “Dose Normalized AUClast” value ([2]; mean, oral gavage 10 mg/kg)?
A: 7.94 kg·ng·h/mL/mg

Q: What about the receptor binding (5-HT2A) of the same compound?
A: bind

Q: And the receptor binding (5-HT3)?
A: bind

Q: What about the receptor binding (5-HT1D(h)) of the same compound?
A: bind

Q: And the receptor binding (5-HT1B)?
A: bind

Q: What about the receptor binding (5-HT1A(h)) of the same compound?
A: bind

Q: And the receptor binding (5-HT4)?
A: bind

Q: And the receptor binding (5-HT2A(h))?
A: bind

Q: What about the receptor binding (5-HT6) of the same compound?
A: bind

Q: What about the receptor binding (5-HT7) of the same compound?
A: bind
